Patent US7919517B2, “Indazole derivatives” (Kyowa Hakko Kirin Co., Ltd., priority 2003, dated 2011)
Structures can show the parent of a compound that is named as a salt.

How the values were obtained:
Assay type in all cases: cell-based
[1] = system: human colon cancer cell line Colo205; assay: Cytostatic activity on solid carcinoma cell line Colo205 (WST-1); conditions: Homo sapiens, COLO 205; 10 μmol/L, 72 hours, Colo205 cells; read-out: cytostatic rate Colo205 (%) (10 μmol/L)
Method in brief: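 Colo205 cells in RPMI 1640 with 10% FBS were pre-cultured 24 h, then exposed to compound at 10 μmol/L final (0.1% DMSO) for 72 h at 37° C. WST-1 was added for 2 h and A450 (ref 690 nm) read. Cytostatic rate = 100 − relative growth, with DMSO control set at 100% and medium blank at 0%.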

[2] = system: human acute myeloid leukemia cell line MV-4-11; assay: Cytostatic activity on leukemia cell line MV-4-11 (WST-1); conditions: Homo sapiens, MV4-11; 10 μmol/L, 72 hours, MV-4-11 cells; read-out: cytostatic rate MV-4-11 (%) (10 μmol/L)
Method in brief: (§1)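 Cells in RPMI 1640/10% FBS were pre-cultured 4 h, then exposed to test compound at 10 μmol/L (0.1% DMSO) for 72 h at 37 °C. WST-1 read at 450 nm (690 nm reference); cytostatic rate = 100 − growth relative to DMSO control (100%) and medium blank (0%).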

[3] = system: human chronic myeloid leukemia cell line K562; assay: Cytostatic activity on leukemia cell line K562 (WST-1); conditions: Homo sapiens; 10 μmol/L, 72 hours, K562 cells; read-out: cytostatic rate K562 (%) (10 μmol/L)
Method in brief: as §1

[4] = system: human acute myeloid leukemia cell line ML-1; assay: Cytostatic activity on leukemia cell line ML-1 (WST-1); conditions: Homo sapiens, ML1; 10 μmol/L, 72 hours, ML-1 cells; read-out: cytostatic rate ML-1 (%) (10 μmol/L)
Method in brief: as §1

Structure (SMILES) | inhibition at 10 µM [1] [%] | inhibition at 10 µM [2] [%] | inhibition at 10 µM [3] [%] | inhibition at 10 µM [4] [%]
O=C(NCCN1CCOCC1)c1ccc(/C=C/c2n[nH]c3ccccc23)cc1 [Compound 10, (E)-N-(2-morpholinoethyl)-4-[2-(1H-indazol-3-yl)vinyl]benzamide] | 41 | 91 | 99 | 83
CN(C)C(=O)NC1CCN(C(=O)c2ccc(/C=C/c3n[nH]c4ccccc34)cc2)CC1 [Compound 132, (E)-4-dimethylcarbamoylamino-1-{4-[2-(1H-indazol-3-yl)vinyl]benzoyl}piperidine] | 91 | 100 | 95 | 88
NC1CCN(C(=O)c2ccc(/C=C/c3n[nH]c4ccccc34)cc2)C1 (stereo not drawn) [Compound 122, (E)-1-{4-[2-(1H-indazol-3-yl)vinyl]benzoyl}-3-aminopyrrolidine dihydrochloride] | 89 | 98 | 93 | 79
NC(=O)C1CCN(C(=O)c2ccc(/C=C/c3n[nH]c4ccccc34)cc2)CC1 [Compound 86, (E)-1-{4-[2-(1H-indazol-3-yl)vinyl]benzoyl}piperidine-4-carboxamide] | 89 | 98 | 88 | 87
CC(C)(O)C(=O)N1CCN(C(=O)c2ccc(/C=C/c3n[nH]c4ccccc34)cc2)CC1 [Compound 68, (E)-4-(2-methyl-2-hydroxypropionyl)-1-{4-[2-(1H-indazol-3-yl)vinyl]benzoyl}piperazine] | 90 | 97 | 91 | 79
O=C(c1ccc(/C=C/c2n[nH]c3ccccc23)cc1)N1CCN(C(=O)C2CC2)CC1 [Compound 55, (E)-4-cyclopropanecarbonyl-1-{4-[2-(1H-indazol-3-yl)vinyl]benzoyl}piperazine] | 89 | 97 | 81 | 83
